Measured values taken from patent US20050215644A1, “Methods for increasing neurotransmitter levels using hydroxycitric acid” (InterHealth Nutraceuticals, Inc., priority 2004, published 2005).

How the values were obtained:
[1] = system: rat brain cortex neurotransmitters; test: effects of an HCA extract and fluoxetine on rat brain cortex neurotransmitters (reverse phase HPLC with electrochemical detection); type: in vivo; settings: for decrease in cortex HIAA / decrease in cortex 5-HT / decrease in DA / decrease in cortex HVA: 15 mg/kg per day oral; for decrease in cortex HIAA / decrease in DA / decrease in cortex HVA / increase in DOPAC / increase in cortex DA / increase in cortex 5-HT: p<0.05; for increase in DOPAC / increase in cortex DA / increase in cortex 5-HT: after 90 days
Description: […] The 5% HCA dose corresponds to 25-times the recommended dose of HCA. Animals were euthanized after 30, 60 and 90 days. Brain cortices were analyzed for serotonin (5-HT), its metabolite 5-hydroxyindoleacetic acid (HIAA), dopamine (DA), and its metabolites 3, 4-dihydroxyphenylacetic acid (DOPAC) and homovanillic acid (HVA) content utilizing reverse phase HPLC with electrochemical detection.

[2] = system: isolated rat brain cortex; settings: cited from earlier work
[3] = first of three values (day 30 by analogy with b27)
[4] = second of three values (day 60 by analogy with b27)
[5] = third of three values (day 90 by analogy with b27)

## CNCCC(Oc1ccc(C(F)(F)F)cc1)c1ccccc1 (centres unmarked) [fluoxetine, reference compound]
[1]; 30 days post-treatment
  decrease in cortex HIAA: 19%
[1]; 60 days post-treatment
  decrease in cortex HIAA: 15%
[1]; 90 days post-treatment
  decrease in cortex HIAA: 17%
[1]; day 30, p<0.05
  decrease in cortex 5-HT: 9%
[1]; day 60, p<0.05
  decrease in cortex 5-HT: 7%
[1]; day 90, p<0.05
  decrease in cortex 5-HT: 8%
[1]; [3]
  decrease in DA: 18%
  decrease in cortex HVA: 17%
[1]; [4]
  decrease in DA: 15%
  decrease in cortex HVA: 13%
[1]; [5]
  decrease in DA: 19%
  decrease in cortex HVA: 14%
[1]; all fluoxetine groups (15 mg/kg per day oral; 30, 60, 90 days)
  changes in cortex DOPAC: No changes

## O=C(O)CC(O)(C(=O)O)C(O)C(=O)O (single isomer, unassigned; (-)) [HCA, (−)-hydroxycitric acid]
[1]; HCA 0.02% oral
  increase in DOPAC: 23%
  increase in cortex DA: 10%
[1]; HCA 0.02% oral, day 90, p<0.05
  increase in cortex HVA: 12%
[1]; HCA 0.2% of diet (10 mg per day) oral
  increase in cortex 5-HT: 11%
[1]; HCA 2% of diet (100 mg per day) oral
  increase in cortex 5-HT: 9%
[1]; HCA 2% of diet oral
  increase in DOPAC: 26%
  increase in cortex DA: 15%
[1]; HCA 2% of diet oral, day 90, p<0.05
  increase in cortex HVA: 15%
[1]; HCA 5% of diet (250 mg per day) oral
  increase in cortex 5-HT: 12%
[1]; HCA 5% of diet oral
  increase in DOPAC: 29%
  increase in cortex DA: 18%
[1]; HCA 5% of diet oral, day 90, p<0.05
  increase in cortex HVA: 13%
[1]; any of the HCA treatment groups (0.2, 2, 5% of diet; 30, 60, 90 days)
  changes in HIAA: No changes
[2]; HCA applied on its own
  efflux of 5-HT: concentration-dependent increase
[2]
  effect on baseline of spontaneous tritium efflux: altered the baseline
  effect on potassium-evoked release of 5-HT: no significant effect
